# Source: paper PMC8708600, “Depth of the Steroid Core Location Determines the Mode of Na,K-ATPase Inhibition by Cardiotonic Steroids” (International Journal of Molecular Sciences, 2021)
# Several values for one entry are separate records, joined by “and”; a condition that tells them apart may be missing. Equal values may be shown once. Entries after “also recorded” stand apart in the source; their conditions may differ. Read-outs that look alike come from different tables or passages of the source.
# Experiments:
# [1] = target: T1, α1S-Na,K-ATPase in E2P-conformation (Sus scrofa, UniProt P05024); experiment: biochemical; type: binding, pig
# T1 construct: In contrast to α1S-NKA from pig kidneys; from tissue; host or cells: pig kidney
# Description: (§1) The thermodynamic parameters of CTSs’ binding to the pig and rat NKA were measured using the MicroCal iTC200 instrument (MicroCal, Northampton, MA, USA), as described earlier. α1S-NKA (pig) was transferred into E2P-conformation in the following way: enzyme preparations (5 mg) were suspended in 3 mL of buffer 10 mM imidazole, 3 mM Tris/Pi (pH 7.4), 1 mM EDTA, 0.1 mM DTT and 3 mM MgCl2 (E2P-conformation). DTT was added to the buffer immediately before the experiment. Suspensions of enzymes were centrifuged at 138,000 g for 90 min, and the pellets obtained were suspended in the buffer. α1R-NKA from rat kidneys was transferred into the buffer by dialysis.
# (§2) Experiments were carried out at 37 °C. CTSs were diluted by a buffer that was used for enzyme suspension. Aliquots (2.5 μL) of ligands were injected into a 0.2 mL cell containing the protein solution to achieve a complete binding isotherm. The protein concentration on the cell ranged from 10 to 20 μM, and the ligand concentration in the syringe ranged from 50 to 200 μM. When we used digoxin or marinobufagenin, stock solutions were prepared using 100% DMSO, and then stock solutions were diluted to needed concentrations by the corresponding buffer; after that, aliquots were added to the cell. The medium with a protein of interest contained DMSO in the same concentration.
# (§3) The resulting titration curves were fitted using the MicroCal Origin software, assuming one set of binding sites. Affinity constants (Ka) and enthalpy variations (ΔH) were determined, and the Gibbs energy (ΔG) and entropy variations (ΔS) were calculated from the equation:ΔG = −RTlnKa = ΔH – TΔS.
# [2] = target: T2, α1S-Na,K-ATPase from pig kidneys (Sus scrofa, UniProt P05024); experiment: Hydrolytic Na,K-ATPase activity (enzyme coupled assay), CTS in incubation medium; type: biochemical
# T2 construct: In contrast to α1S-NKA from pig kidneys; from tissue; host or cells: pig kidney
# Description: (§4) NKA activity was estimated as ATP cleavage using the enzyme coupled assay method. Incubation medium (2 mL) contained 130 mM NaCl, 20 mM KCl, 4 mM MgCl2, 3 mM ATP, […] (pH 7.4), 1 mM phosphoenolpyruvate, 0.2 mM NADH, 0.18 MM; NADH and pyruvate kinase (600–1000 units/mL)/lactate dehydrogenase (900–1400 units/mL). […] Incubation was carried out at 37 °C, and the concentration of Na,K-ATPase in the sample was 0.4–0.6 μg/mL. […] To determine IC50, 2 μg NKA was preincubated with CTSs in the incubation medium for 10 min, and after that, the reaction was started by the addition of ATP.
# (§5) The plots describing the dependence of the NKA hydrolytic activity on CTSs concentration in the incubation medium were made using the Origin 8.1 program (OriginLab Corp., Northampton, MA, USA). They were fitted by hyperbola. The dependence of the Na,K-ATPase hydrolytic activity on the CTSs’ concentration in the preincubation media was fitted to the Hill 1 function: y=y0+ymax−y0x^n/k^n+x^n, where y—Na,K-ATPase activity; x—concentration of CTS; k—inhibition constant; n—Hill coefficient. Fitting was performed using Origin 8.1 software.
# [3] = target: T3, α1R-Na,K-ATPase from rat kidneys (Rattus norvegicus, UniProt P06685); experiment: as above; type: biochemical; details: for inhibition of α1R-NKA activity (in words): concentration up to 500 μM
# T3 construct: α1R-NKA from rat kidneys was transferred into the buffer by dialysis; from tissue; host or cells: rat kidney
# Description: as §4, §5
# [4] = target: T4, α1R-Na,K-ATPase from rat kidney in E2P-conformation (Rattus norvegicus, UniProt P06685); type: biochemical
# T4 construct: α1R-NKA from rat kidneys was transferred into the buffer by dialysis; from tissue; host or cells: rat kidney
# Description: (§6) To identify a mode of enzyme inhibition by CTSs after their binding to different enzyme conformations, we preincubated NKA in the medium containing 30 MM imidazole (pH 7.4), 3 mM MgCl2, 3 mM Pi/Tris and 1 mM EDTA (E2P-conformation). Solutions of CTSs were made using 100% DMSO with a final concentration of ouabain 100 mM and digoxin and marinobufagenin at 10 mM. Then an aliquot of the corresponding stock solution was added to the preincubation medium to obtain a final CTSs concentration.
# (§7) After enzyme preincubation with different concentrations of CTSs for several minutes, the reaction was started by transferring the aliquot of the solution containing 0.25–2.5 μg of NKA from the preincubation medium into the incubation one. The concentration of CTSs was decreased by this procedure by 50–100 times. […] That time interval was equal to 10 min for E2P-conformation of pig and rat kidney enzymes. The control sample was preincubated under the same conditions with a concentration of DMSO that was added to the experimental medium with the corresponding CTS.
# as §5
# [5] = target: T5, α1S-Na,K-ATPase from pig kidneys in E2P-conformation (Sus scrofa, UniProt P05024); type: biochemical
# T5 construct: In contrast to α1S-NKA from pig kidneys; from tissue; host or cells: pig kidney
# Description: as §6, §7, §5
# NKA in E2P-conformation = target: NKA in E2P-conformation; design: method as in PMID 33318128; details: read-out: Kd for binding to E2P-conformation; cited from earlier work
# [6] = target: T6, α1R-Na,K-ATPase in E2P-conformation (Rattus norvegicus, UniProt P06685); experiment: biochemical; type: binding
# T6 construct: α1R-NKA from rat kidneys was transferred into the buffer by dialysis; from tissue; host or cells: rat kidney
# Description: as §1, §2, §3
# NKA from pig kidneys = details: read-out: IC50 measured for the enzyme from pig kidneys; cited from earlier work
# [7] = target: NKA from duck salt glands (α1β1-isoform), E2P-conformation; design: method as in PMID 26297827; details: cited from earlier work; for Kd: read-out: Kd, binding to E2P-conformation of NKA
# renal epithelial cells = tested on: renal epithelial cells; design: method as in PMID 15494417; details: ion transport by NKA inhibited by 50% at these concentrations; cited from earlier work
# [8] = ITC, E2P-conformation, pH 7.4, 37 °C
# [9] = ITC, E2P-conformation, pH 7.4, 37 °C, calculated as Kd = 1/Ka, read-out: Kd (dissociation constant)
# [10] = ITC, pH 7.4, 37 °C, ΔG = −RTlnKa
# [11] = CTS in incubation medium, 37 °C, hyperbola fit, read-out: IC50, inhibition of α1S-NKA hydrolytic activity
# [12] = as restated in discussion, read-out: IC50 evaluated in our experiments
# [13] = after preincubation with enzyme in E2P-conformation and dilution
# [14] = ITC, E2P-conformation, pH 7.4, 37 °C, nd = not detected
smiles,measurement,setting,value
C[C@H]1O[C@@H](O[C@H]2[C@@H](O)C[C@H](O[C@H]3[C@@H](O)C[C@H](O[C@H]4CC[C@@]5(C)[C@H](CC[C@@H]6[C@@H]5C[C@@H](O)[C@]5(C)[C@@H](C7=CC(=O)OC7)CC[C@]65O)C4)O[C@@H]3C)O[C@@H]2C)C[C@H](O)[C@@H]1O [digoxin],entropy component (−TΔS),[1],-2.0 kcal/mol
same,TΔS (entropy variation),[1]; pH 7.4,2.0 kcal/mol
same,n (reaction stoichiometry),[1]; pH 7.4,0.5 ± 0.1
same,ΔG (Gibbs energy),[1]; pH 7.4,-9.9 kcal/mol
same,ΔH (enthalpy variation),[1]; pH 7.4,-7.9 ± 0.6 kcal/mol and -7.9 kcal/mol
same,IC50,"[2]; IC50, inhibition of α1S-NKA hydrolytic activity",1.2 µM
same,IC50,[2]; IC50 evaluated in our experiments,2 µM
same,IC50,[3],250 µM
same,mode of interaction with α1R-NKA (in words),[4],reversible
same,Hill coefficient,[5],1.90 ± 0.21 and 1.70 ± 0.33 and 1.99 ± 0.27
same,mode of α1S-NKA inhibition (in words),[5],pseudo-irreversible inhibitors
same,Kd,NKA in E2P-conformation,0.126 µM
same,binding of α1R-NKA to CTS (in words),[6],no measurable binding
same,IC50,NKA from pig kidneys,1.95 µM
C[C@]12CC[C@H](O)C[C@@]1(O)CC[C@@H]1[C@@H]2CC[C@]2(C)[C@@H](c3ccc(=O)oc3)C[C@H]3O[C@]132 [marinobufagenin],entropy component (−TΔS),"[1]; ITC, 37 °C",-2.8 kcal/mol
same,affinity of α1S-NKA for marinobufagenin lower than that for digoxin,"[1]; ITC, E2P-conformation, 37 °C",~11 times
same,affinity of α1S-NKA for marinobufagenin lower than that for ouabain,"[1]; ITC, E2P-conformation, 37 °C",about 44 times
same,Ka (association constant),[1]; [8],4.3 × 10^5 * M^−1
same,TΔS (entropy variation),[1]; [8],2.8 kcal/mol
same,n (reaction stoichiometry),[1]; [8],1.7 ± 0.2
same,ΔH (enthalpy variation),[1]; [8],-5.2 ± 0.3 kcal/mol
same,Kd,[1]; [9],2.32 µM
same,ΔH (enthalpy variation),"[1]; ITC, E2P-conformation, pH 7.4, 37 °C, listed as MBG",-5.2 kcal/mol
same,Kd,"[1]; ITC, Table 1 value as quoted in discussion, read-out: Kd for binding to E2P-conformation",2.3 µM
same,ΔG (Gibbs energy),[1]; [10],-7.9 kcal/mol
same,Kd,[7],1.7 µM
same,IC50,[2]; [11],0.8 µM
same,IC50,[2]; [12],1.2 µM
same,inhibition of α1R-NKA activity (in words),[3],does not inhibit this isoform at all
same,inhibition of α1R-NKA activity (in words),[3]; listed as Marinobufagenin,does not inhibit
same,mode of α1S-NKA inhibition (in words),[5]; [13],reversible inhibitor; also recorded: reversibly
same,concentration inducing renal epithelial cells death,renal epithelial cells,about 1 μM
same,binding of α1R-NKA to CTS (in words),"[6]; ITC, association constants below 2 × 10^4 M^−1 cannot be measured",no measurable binding
same,IC50,NKA from pig kidneys,1.5 µM
C[C@]12CC[C@H](O)C[C@H]1CC[C@@H]1[C@@H]2CC[C@]2(C)[C@@H](c3ccc(=O)oc3)CC[C@]12O [bufalin],Kd,NKA in E2P-conformation,0.125 µM
same,IC50,NKA from pig kidneys,0.11 µM
C[C@@H]1O[C@@H](O[C@H]2C[C@@H](O)[C@]3(CO)[C@H]4[C@H](O)C[C@]5(C)[C@@H](C6=CC(=O)OC6)CC[C@]5(O)[C@@H]4CC[C@]3(O)C2)[C@H](O)[C@H](O)[C@H]1O [ouabain],Ka (association constant),[1]; [8],1.9e+07 M⁻¹
same,TΔS (entropy variation),[1]; [8],-11.3 kcal/mol
same,n (reaction stoichiometry),[1]; [8],0.7 ± 0.2
same,ΔH (enthalpy variation),[1]; [8],-21.6 ± 0.7 kcal/mol and -21.6 kcal/mol
same,Kd,[1]; [9],0.053 µM
same,ΔG (Gibbs energy),[1]; [10],-10.3 kcal/mol
same,higher affinity of ouabain binding in comparison to marinobufagenin,[7]; E2P-conformation,17 fold
same,Kd,[7],0.1 µM
same,IC50,[2]; [11],2 µM
same,IC50,[2]; [12],0.8 µM
same,IC50,"[3]; CTS in incubation medium, 37 °C, hyperbola fit, read-out: IC50, inhibition of rat enzyme (α1R-NKA) hydrolytic activity",140 µM
same,mode of interaction with α1R-NKA (in words),[4]; after preincubation with enzyme and dilution,reversibly; also recorded: reversible
same,Hill coefficient,"[5]; CTS in preincubation medium, 40 nM of the enzyme",1.89 ± 0.14
same,Hill coefficient,"[5]; CTS in preincubation medium, 80 nM of the enzyme",1.96 ± 0.19
same,Hill coefficient,"[5]; CTS in preincubation medium, 400 nM of the enzyme",1.91 ± 0.09
same,mode of α1S-NKA inhibition (in words),[5]; [13],pseudo-irreversible inhibitors
same,Kd,NKA in E2P-conformation,0.088 µM
same,concentration inducing renal epithelial cells death,renal epithelial cells,~0.1 µM
same,entropy component (−TΔS),"[6]; ITC, 37 °C",-3.4 kcal/mol
same,TΔS (entropy variation),[6]; [8],3.4 kcal/mol
same,Kd,[6]; [9],3.23 µM
same,Ka (association constant),[6]; [14],3.1 × 10^5 * M^−1
same,n (reaction stoichiometry),[6]; [14],0.6 ± 0.1
same,ΔH (enthalpy variation),[6]; [14],-4.3 ± 0.7 kcal/mol and -4.3 kcal/mol
same,ΔG (Gibbs energy),[6]; [10],-7.7 kcal/mol
same,ouabain affinity for α1R-NKA lower than for α1S-NKA,"[6]; ITC, α1R versus α1S",60 times
same,IC50,NKA from pig kidneys,0.9 µM
